Where a chain is given by its changes, count along the chain named. Like-named read-outs stand apart in the source and are kept apart here.
Experiments:
WT TALK-2 channels = molecular target: T1, WT TALK-2 channels (Homo sapiens, UniProt Q96T54); conditions: TALK-2 WT
T1 sequence (Q96T54 1-332): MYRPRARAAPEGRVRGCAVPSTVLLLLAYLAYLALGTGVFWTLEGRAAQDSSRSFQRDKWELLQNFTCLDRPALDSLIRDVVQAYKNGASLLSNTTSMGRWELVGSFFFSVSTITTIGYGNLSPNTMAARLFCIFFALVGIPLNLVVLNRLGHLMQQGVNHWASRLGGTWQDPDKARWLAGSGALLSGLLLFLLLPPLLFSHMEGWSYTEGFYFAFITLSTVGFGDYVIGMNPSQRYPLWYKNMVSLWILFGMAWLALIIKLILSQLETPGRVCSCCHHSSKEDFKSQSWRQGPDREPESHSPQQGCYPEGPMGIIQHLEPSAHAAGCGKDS
Method: Data shown are the mean ± s.e.m and the number (n) of repeats of the representative measurements with similar results is indicated in the figure.
Oocytes were surgically removed from anesthetized adult females, treated with type II collagenase (Sigma-Aldrich/Merck, Germany) and manually defolliculated. 50 nl of a solution containing the K^+ channel specific cRNA was injected into Dumont stage V - VI oocytes and subsequently incubated at 17 °C in a solution containing (mM): 54 NaCl, 30 KCl, 2.4 NaHCO3, 0.82 MgSO4 x 7 H2O, 0.41 CaCl2, 0.33 Ca(NO3)2 x 4 H2O and 7.5 TRIS (pH 7.4 adjusted with NaOH/HCl) for 1–7 days before use. Electrophysiological recordings: Excised patch measurements in inside-out configuration under voltage-clamp conditions were performed at room temperature (22 – 24 °C). Patch pipettes were made from thick-walled borosilicate glass GB 200TF-8P (Science Products, Germany), had resistances of 0.2–0.5 MΩ (tip diameter of 10 - 25 µm) and filled with a pipette solution (in mM): 120 KCl, 10 HEPES and 3.6 CaCl2 (pH 7.0 - 8.5 adjusted with KOH/HCl) or 120 KCl, 10 AMPSO and 3.6 CaCl2 (pH 9.0 - 10.5 adjusted with KOH/HCl). Intracellular bath solutions and compounds were applied to the cytoplasmic side of excised patches for the various K^+ channels via a gravity flow multi-barrel pipette system. Intracellular solution had the following composition (in mM): 120 KCl, 10 HEPES, 2 EGTA and 1 Pyrophosphate (pH adjusted with KOH/HCl). In other intracellular bath solutions, K^+ was replaced by Rb^+ (pH 7.4 adjusted with RbOH/HCl). Currents were recorded with an EPC10 amplifier (HEKA electronics, Germany) and sampled at 10 kHz or higher and filtered with 3 kHz (-3 dB) or higher as appropriate for sampling rate.

[1] = system: WT TREK-1 channels (human K2P2.1); conditions: TREK-1 WT
Method: Oocytes were surgically removed from anesthetized adult females, treated with type II collagenase (Sigma-Aldrich/Merck, Germany) and manually defolliculated. 50 nl of a solution containing the K^+ channel specific cRNA was injected into Dumont stage V - VI oocytes and subsequently incubated at 17 °C in a solution containing (mM): 54 NaCl, 30 KCl, 2.4 NaHCO3, 0.82 MgSO4 x 7 H2O, 0.41 CaCl2, 0.33 Ca(NO3)2 x 4 H2O and 7.5 TRIS (pH 7.4 adjusted with NaOH/HCl) for 1–7 days before use. Electrophysiological recordings: Excised patch measurements in inside-out configuration under voltage-clamp conditions were performed at room temperature (22 – 24 °C). […] Intracellular bath solutions and compounds were applied to the cytoplasmic side of excised patches for the various K^+ channels via a gravity flow multi-barrel pipette system. Intracellular solution had the following composition (in mM): 120 KCl, 10 HEPES, 2 EGTA and 1 Pyrophosphate (pH adjusted with KOH/HCl). In other intracellular bath solutions, K^+ was replaced by Rb^+ (pH 7.4 adjusted with RbOH/HCl). Currents were recorded with an EPC10 amplifier (HEKA electronics, Germany) and sampled at 10 kHz or higher and filtered with 3 kHz (-3 dB) or higher as appropriate for sampling rate.
Recorded currents were analyzed from stable membrane patches at a voltage defined in the respective figure legend or with a voltage protocol as indicated in the respective figure. The fold activation (fold change in (tail) current amplitude) of a ligand (drug or bioactive lipid) was calculated from Eq. 1:1 Fold activationFA=Iactivated/Ibasal where Iactivated represents the stable current level in the presence of a given concentration of a respective ligand and Ibasal the measured current before ligand application. Percentage inhibition or residual currents upon blocker application for a ligand (drug or bioactive lipid) was calculated from stable currents of excised membrane patches using the following Eqs. 2 and 3:2 %inhibition=1−Iinhibited/Ibasal*100 3 Residual current=100−%inhibition where Iinhibited refers to the stable current level recorded in the presence of a given concentration of a drug or bioactive lipid and Ibasal to the measured current before ligand application. The macroscopic half-maximal concentration-inhibition relationship of a ligand was obtained using a Hill-fit for dose-response curves as depicted in Eq. 4:4 %inhibition/activation=Ibase+Imax−Ibase/1+x1/2/x^rate where base and max are the currents in the absence and presence of a respective ligand, x is the concentration of the ligand, x1/2 is the ligand concentration at which the activatory or inhibitory effect is half-maximal, rate is the Hill coefficient.

[2] = molecular target: T2, TALK-2 L264A mutant channels (Homo sapiens, UniProt Q96T54, L264A); assay: Conductance-voltage (G-V) curves from tail currents, V1/2 (intracellular Rb+); type: cell-based; parameters: expressed in transfected cells; host or cells: Xenopus laevis oocytes (cRNA injection), excised inside-out patches; conditions: for Normalized current: TALK-2 L264A + 1 mM TPenA
T2 sequence (Q96T54 1-332 L264A): T1 sequence (Q96T54 1-332) with L264A
From the text: The voltage-dependent activation mechanism of the SF gate in K2P channels allows to estimate the electrical work (ΔG = zFΔV1/2) required for pore opening by fitting the G–V curve to a Boltzmann equation. […] The open state represents the situation of both gates being simultaneously open but voltage can only exert force on the SF gate that functions as voltage sensor. […] We further tested whether mutations that open the lower gate (L262A and L264A) would affect the extracellular pH sensitivity. […] We further explored this concept of allosteric coupling using the mutations identified in the functional alanine screen of TM2 and TM4.
Dashed lines in e, f represent the level of WT (unstimulated) V1/2 at pHe 7.4. g Normalized currents from TEVC measurements of oocytes expressing WT (n = 11) and mutant L262A (n = 5) or L264A TALK-2 channels (n = 8), respectively. Channels were activated by increasing pHe from 5.5 to 10.5 with 0.5 pH increments. Currents were elucidated with a voltage protocol ramped from −120 mV to +45 mV within 3.5 s, analyzed at +40 mV and normalized to pH 10.5. Data shown are the mean ± s.e.m and the number (n) of independent experiments is indicated in the figure and supplementary tables 3 and 4.
Conductance-voltage (G–V) relationships were determined from tail currents recorded at a holding potential (VH) of −80 mV after 300 ms depolarizing steps as indicated in the respective figure legend. Data were analyzed with a single Boltzmann fit following Eq. 6:6 GV=Imax/1+e^V−V1/2/slope+Ibase where V1/2 represents the voltage of half-maximal activation, s is the slope factor and Imax and Ibase represent the upper and lower asymptotes. Under appropriate experimental conditions, you can use slope to calculate the valence (charge) of the ion moving across the channel. Slope equals R * T/ z * F where R is the universal gas constant, T is temperature in K, F is the Faraday constant, and z is the valence.

[3] = molecular target: T3, WT TALK-2 channels (human K2P17.1) (Homo sapiens, UniProt Q96T54); parameters: expressed in transfected cells; host or cells: Xenopus laevis oocytes (cRNA injection), excised inside-out patches; method as in PMID 34928298; conditions: cited from earlier work
T3 sequence (Q96T54 1-332): T1 sequence (Q96T54 1-332)

Compound: NCCOB(c1ccccc1)c1ccccc1 [2-APB, 2-aminoethoxydiphenyl borate]
- Rb+-induced current (WT TALK-2 channels; 0.001 mM 2-APB): 0.79 nA
- Rb+-induced current (WT TALK-2 channels; 0.01 mM 2-APB): 0.98 nA
- Rb+-induced current (WT TALK-2 channels; 0.1 mM 2-APB): 2.85 nA
- Rb+-induced current (WT TALK-2 channels; 0.5 mM 2-APB): 8.79 nA
- Rb+-induced current (WT TALK-2 channels; 1.0 mM 2-APB): 11.82 nA
- Rb+-induced current (WT TALK-2 channels; 2.0 mM 2-APB): 15.32 nA
- Normalized currents ([1]; 0.1 µM 2-APB): 0.03
- Normalized currents ([1]; 1 µM 2-APB): 0.04
- Normalized currents ([1]; 10 µM 2-APB): 0.08
- Normalized currents ([1]; 100 µM 2-APB): 0.28
- Normalized currents ([1]; 200 µM 2-APB): 0.47
- Normalized currents ([1]; 500 µM 2-APB): 0.80
- Normalized currents ([1]; 1000 µM 2-APB): 0.97
- Normalized currents ([1]; 2000 µM 2-APB): 0.99

Compound: CCCCC[N+](CCCCC)(CCCCC)CCCCC [TPenA, Tetra-pentyl-ammonium chloride]
- Normalized current ([2]; Voltage 0.000): 0.564
- Normalized current ([2]; Voltage 0.005): 0.623
- Normalized current ([2]; Voltage 0.010): 0.674
- Normalized current ([2]; Voltage 0.015): 0.740
- Normalized current ([2]; Voltage 0.020): 0.788
- Normalized current ([2]; Voltage 0.025): 0.840
- Normalized current ([2]; Voltage 0.030): 0.884
- Normalized current ([2]; Voltage 0.035): 0.911
- Normalized current ([2]; Voltage 0.040): 0.934
- Normalized current ([2]; Voltage 0.045): 0.947
- Normalized current ([2]; Voltage 0.050): 0.961
- Normalized current ([2]; Voltage 0.055): 0.969
- Normalized current ([2]; Voltage 0.060): 0.977
- Normalized current ([2]; Voltage 0.065): 0.978
- Normalized current ([2]; Voltage 0.070): 0.978
- Normalized current ([2]; Voltage 0.075): 0.974
- Normalized current ([2]; Voltage 0.080): 0.988
- Normalized current ([2]; Voltage 0.085): 0.976
- Normalized current ([2]; Voltage 0.090): 0.979
- Normalized current ([2]; Voltage 0.095): 0.980
- Normalized current ([2]; Voltage 0.100): 0.977
- Normalized current ([2]; Voltage 0.105): 0.982
- Normalized current ([2]; Voltage 0.110): 0.987
- Normalized current ([2]; Voltage 0.115): 0.981
- Normalized current ([2]; Voltage -0.005): 0.522
- Normalized current ([2]; Voltage -0.010): 0.490
- Normalized current ([2]; Voltage -0.015): 0.463
- Normalized current ([2]; Voltage -0.020): 0.444
- Normalized current ([2]; Voltage -0.025): 0.430
- Normalized current ([2]; Voltage -0.030): 0.417
- Normalized current ([2]; Voltage -0.035): 0.405
- Normalized current ([2]; Voltage -0.040): 0.395
- Normalized current ([2]; Voltage -0.045): 0.384
- Normalized current ([2]; Voltage -0.050): 0.375
- Normalized current ([2]; Voltage -0.055): 0.367
- Normalized current ([2]; Voltage -0.060): 0.359
- Normalized current ([2]; Voltage -0.065): 0.351
- Normalized current ([2]; Voltage -0.070): 0.345
- Normalized current ([2]; Voltage -0.075): 0.337
- Normalized current ([2]; Voltage -0.080): 0.333
- Normalized current ([2]; Voltage -0.085): 0.330
- Normalized current ([2]; Voltage -0.090): 0.331
- Normalized current ([2]; Voltage -0.095): 0.326
- effect of TPenA on the G-V curve ([2]; TALK-2 L264A, intracellular Rb+): no marked effect

Compound: CCCCCCCC/C=C\CCCCCCCC(=O)SCCNC(=O)CCNC(=O)[C@H](O)C(C)(C)COP(=O)(O)OP(=O)(O)OC[C@H]1O[C@@H](n2cnc3c(N)ncnc32)[C@H](O)[C@@H]1OP(=O)(O)O [oleoyl-CoA]
- increase of channel activity [3]: more than 100 fold

Reference: publication PMC11364775, “Ion occupancy of the selectivity filter controls opening of a cytoplasmic gate in the K2P channel TALK-2” (Nature Communications, 2024)
